Source: PubChem BioAssay AID248 (DTP/NCI, 2004)
“And” between values parts separate entries of the source, which are not always exact repeats. Identical values can stand only once. Inconclusive results and toxic doses are left out. Rule as the data show it: active = T/C of 150% or more; inactive = T/C below 125%.

Tested on: L1210 leukemia ip in BDF1 mice, survival T/C
Test: NCI In Vivo Anticancer Drug Screen. Data for tumor model L1210 Leukemia (intraperitoneal) in B6D2F1 (BDF1) mice
Details: endpoint: mean survival time, higher = longer survival
Method in brief: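 Ratio derived from survival: compound-dosed mice over vehicle-dosed mice, all bearing a transplantable tumor.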

[1] = dose: 50.0 mg/kg/injection, schedule: Q01DX009 (ip), vehicle: Klucel (hydroxypropylcellulose) (HPC)
[2] = dose: 100.0 mg/kg/injection, schedule: Q01DX009 (ip), vehicle: Klucel (hydroxypropylcellulose) (HPC)
[3] = dose: 100.0 mg/kg/injection, schedule: Q01DX001 (ip), vehicle: saline
[4] = dose: 400.0 mg/kg/injection, schedule: Q01DX001 (ip), vehicle: saline
[5] = dose: 200.0 mg/kg/injection, schedule: Q01DX009 (ip), vehicle: Klucel (hydroxypropylcellulose) (HPC)
[6] = dose: 400.0 mg/kg/injection, schedule: Q01DX009 (ip), vehicle: Klucel (hydroxypropylcellulose) (HPC)
[7] = dose: 50.0 mg/kg/injection, schedule: Q04DX002 (ip), vehicle: Klucel (hydroxypropylcellulose) (HPC)
[8] = dose: 100.0 mg/kg/injection, schedule: Q04DX002 (ip), vehicle: Klucel (hydroxypropylcellulose) (HPC)
[9] = dose: 100.0 mg/kg/injection, schedule: Q04DX003 (ip), vehicle: Klucel (hydroxypropylcellulose) (HPC)
[10] = dose: 200.0 mg/kg/injection, schedule: Q04DX003 (ip), vehicle: Klucel (hydroxypropylcellulose) (HPC)
[11] = dose: 400.0 mg/kg/injection, schedule: Q04DX003 (ip), vehicle: Klucel (hydroxypropylcellulose) (HPC)
[12] = dose: 100.0 mg/kg/injection, schedule: Q01DX001 (ip), vehicle: carboxymethylcellulose (CMC)
[13] = dose: 200.0 mg/kg/injection, schedule: Q01DX001 (ip), vehicle: carboxymethylcellulose (CMC)
[14] = dose: 3.13 mg/kg/injection, schedule: Q01DX009 (ip), vehicle: Klucel (hydroxypropylcellulose) (HPC)
[15] = dose: 100.0 mg/kg/injection, schedule: Q04DX003 (ip), vehicle: saline
[16] = dose: 200.0 mg/kg/injection, schedule: Q01DX001 (ip), vehicle: saline
[17] = dose: 200.0 mg/kg/injection, schedule: Q04DX003 (ip), vehicle: saline
[18] = dose: 400.0 mg/kg/injection, schedule: Q04DX003 (ip), vehicle: saline
[19] = dose: 100.0 mg/kg/injection, schedule: Q01DX001 (ip), vehicle: Klucel (hydroxypropylcellulose) (HPC)
[20] = dose: 200.0 mg/kg/injection, schedule: Q01DX001 (ip), vehicle: Klucel (hydroxypropylcellulose) (HPC)
[21] = dose: 400.0 mg/kg/injection, schedule: Q01DX001 (ip), vehicle: Klucel (hydroxypropylcellulose) (HPC)
[22] = dose: 100.0 mg/kg/injection, schedule: Q01DX009 (ip), vehicle: saline
[23] = dose: 200.0 mg/kg/injection, schedule: Q01DX009 (ip), vehicle: saline

Measured: T/C

CS(=O)(=O)Oc1cc(=O)oc2ccccc12
inactive: [1] 103 % of control | [2] 109 % of control

CCO/C=N/NC(=O)CNC(=O)C=[N+]=[N-]
inactive: dose: 180.0 mg/kg/injection, schedule: Q01DX001 (ip), vehicle: water 100 % of control and 116 % of control | dose: 270.0 mg/kg/injection, schedule: Q01DX001 (ip), vehicle: water 101 % of control and 117 % of control | dose: 400.0 mg/kg/injection, schedule: Q01DX001 (ip), vehicle: water 105 % of control and 117 % of control | dose: 600.0 mg/kg/injection, schedule: Q01DX001 (ip), vehicle: water 106 % of control and 111 % of control

O=c1sc2ccccc2n1CCSCCn1c(=S)sc2ccccc21
inactive: [3] 90 % of control | [4] 93 % of control

COC(=O)c1cc(O)c(C(=O)OC)s1
inactive: [2] 101 % of control | [5] 98 % of control | [6] 95 % of control

CC(=O)C(CCC#N)(CCC#N)C(C)=O
inactive: [7] 101 % of control | [8] 95 % of control and 105 % of control | dose: 200.0 mg/kg/injection, schedule: Q04DX002 (ip), vehicle: Klucel (hydroxypropylcellulose) (HPC) 100 % of control | dose: 400.0 mg/kg/injection, schedule: Q04DX002 (ip), vehicle: Klucel (hydroxypropylcellulose) (HPC) 97 % of control and 86 % of control

O=N[O-].O=N[O-].[Co].[NH-]CC[N-]CC[N-]CC[NH-]
inactive: dose: 50.0 mg/kg/injection, schedule: Q01DX001 (ip), vehicle: saline 104 % of control

CCCCCCCCCCCC(=O)NC(=S)Nc1cccc(F)c1
inactive: [9] 95 % of control | [10] 90 % of control

CN(C)c1cc(Br)c(C=O)cc1[N+](=O)[O-]
inactive: [2] 94 % of control | [9] 102 % of control | [5] 103 % of control | [10] 93 % of control | [6] 92 % of control | [11] 98 % of control

O[C@@H]1CCC[C@H]1n1cnc2c(=S)nc[nH]c21
inactive: dose: 89.0 mg/kg/injection, schedule: Q04DX003 (ip), vehicle: saline with Tween-80 104 % of control | dose: 133.0 mg/kg/injection, schedule: Q04DX003 (ip), vehicle: saline with Tween-80 112 % of control

Clc1ncnc2scnc12
inactive: dose: 50.0 mg/kg/injection, schedule: Q01DX001 (ip), vehicle: carboxymethylcellulose (CMC) 102 % of control | [12] 91 % of control | [13] 98 % of control

COCc1cc(C(C)(C)C)c(O)c(C(C)(C)C)c1
inactive: [2] 94 % of control | [9] 98 % of control | [5] 89 % of control | [10] 96 % of control | [6] 89 % of control | [11] 88 % of control

O=[N+]([O-])c1ccc2c(c1)[As](=O)(O)c1cc([N+](=O)[O-])ccc1-2
inactive: dose: 75.0 mg/kg/injection, schedule: Q01DX001 (ip), vehicle: saline 120 % of control

BrC1C(Br)C(Br)C2OC2C1Br (stereo not drawn)
inactive: [2] 96 % of control | [5] 102 % of control | [6] 98 % of control

CCC[As](=O)(O)CCCc1ccccc1
inactive: dose: 0.78 mg/kg/injection, schedule: Q01DX009 (ip), vehicle: Klucel (hydroxypropylcellulose) (HPC) 100 % of control | dose: 1.56 mg/kg/injection, schedule: Q01DX009 (ip), vehicle: Klucel (hydroxypropylcellulose) (HPC) 87 % of control | [14] 101 % of control

O=C1c2ccccc2-c2cc(Cl)c(N=Cc3ccc4c(c3)OCO4)cc21
inactive: [12] 98 % of control | [13] 102 % of control | dose: 400.0 mg/kg/injection, schedule: Q01DX001 (ip), vehicle: carboxymethylcellulose (CMC) 109 % of control

O=C1CCC(NC(=O)C(F)(F)F)C(=O)O1 (stereo not drawn)
inactive: [9] 101 % of control | [10] 94 % of control | [11] 92 % of control

COC(=O)c1cccc(C)n1
inactive: [3] 94 % of control | [15] 104 % of control | [16] 100 % of control | [17] 97 % of control | [4] 96 % of control | [18] 92 % of control

COc1ccccc1-n1c(O)c(N=Nc2ccc(Br)cc2)c(=O)n(-c2ccccc2OC)c1=S
inactive: [19] 103 % of control | [20] 105 % of control | [21] 92 % of control

Oc1ccccc1C=Nc1ccccc1N=Cc1ccccc1O
inactive: [19] 102 % of control | [20] 103 % of control | [21] 96 % of control

O=C(CCCl)NCCCCCCNC(=O)CCCl
inactive: [3] 100 % of control | [16] 89 % of control | [4] 90 % of control

CC1CCCC(c2ccccc2)C1 (stereo not drawn)
inactive: dose: 100.0 mg/kg/injection, schedule: Q01DX001 (ip), vehicle: saline with Tween-80 97 % of control | dose: 200.0 mg/kg/injection, schedule: Q01DX001 (ip), vehicle: saline with Tween-80 102 % of control | dose: 400.0 mg/kg/injection, schedule: Q01DX001 (ip), vehicle: saline with Tween-80 101 % of control

CCCCCCCCCCN1C(=O)c2ccccc2S1(=O)=O
inactive: [22] 95 % of control | [15] 97 % of control | [23] 97 % of control | [17] 100 % of control | dose: 400.0 mg/kg/injection, schedule: Q01DX009 (ip), vehicle: saline 97 % of control | [18] 95 % of control

ClCC1=NCCCN1
inactive: [14] 93 % of control | dose: 6.25 mg/kg/injection, schedule: Q01DX009 (ip), vehicle: Klucel (hydroxypropylcellulose) (HPC) 97 % of control | dose: 12.5 mg/kg/injection, schedule: Q01DX009 (ip), vehicle: Klucel (hydroxypropylcellulose) (HPC) 97 % of control | dose: 12.5 mg/kg/injection, schedule: Q04DX002 (ip), vehicle: Klucel (hydroxypropylcellulose) (HPC) 97 % of control | dose: 25.0 mg/kg/injection, schedule: Q01DX009 (ip), vehicle: Klucel (hydroxypropylcellulose) (HPC) 97 % of control | dose: 25.0 mg/kg/injection, schedule: Q04DX002 (ip), vehicle: Klucel (hydroxypropylcellulose) (HPC) 104 % of control | [1] 97 % of control | [7] 104 % of control | [8] 98 % of control

CCCCCC(=O)c1c(O)cc2c(c1O)C(=O)c1c(O)cc(O)cc1C2=O
inactive: [3] 86 % of control | dose: 300.0 mg/kg/injection, schedule: Q01DX001 (ip), vehicle: saline 91 % of control

CCCC(CCC)=NCCN=C(CCC)CCC
inactive: [22] 97 % of control | [23] 94 % of control

CCOC(=O)C(Cc1ccccc1)C(=O)OCC
inactive: dose: 100.0 mg/kg/injection, schedule: Q04DX003 (ip), vehicle: saline with Tween-80 96 % of control | dose: 200.0 mg/kg/injection, schedule: Q04DX003 (ip), vehicle: saline with Tween-80 97 % of control | dose: 400.0 mg/kg/injection, schedule: Q04DX003 (ip), vehicle: saline with Tween-80 96 % of control
